The values below are quoted from earlier work in article PMC7898808 (Diabetes, Obesity & Metabolism, 2020).

Read-outs that look alike come from different tables or passages of the source.

The subject of one data set is fructose-stimulated DNL. Particulars: single dose of 20 mg, healthy population.
The test system of a further data set is steady-state DNL. Particulars: repeat dosing in NASH subjects.
The subject of a further data set is NAFLD patients. The following applies: 20 mg for 12 weeks.

Turning to `Cc1nnc(-c2cc(C(=O)N3CCC(c4ccc(C#N)cc4)CC3)c(C)cc2C2CCC2)[nH]1` [TVB-2640], the DNL inhibition in the data set with hepatic DNL (50 mg daily dosing for 10 days) is 23%; with hepatic DNL (100 mg daily dosing for 10 days), 65%; with hepatic DNL (150 mg daily dosing for 10 days), 77%.
For `COc1ccccc1[C@H](Cn1c(=O)n(C(C)(C)C(=O)O)c(=O)c2c(C)c(-c3ncco3)sc21)OC1CCOCC1` [GS-0976], the “reduction of fructose-stimulated DNL” value with fructose-stimulated DNL is recorded as 70%. The “decrease of steady-state DNL” value in the data set with steady-state DNL is recorded as 22%. In addition, the “patients achieving relative MRI-PDFF reduction of ≥30%” value with NAFLD patients was 43%.
